Tests used:
Type in all cases: in vivo
[1] = test system: spring barley (cv. “Alexis”); assay: Shoot height reduction in spring barley, synergistic combinations; conditions: 20 days after treatment
Description: (§1) Unless otherwise noted, the growth regulating proerties of different compounds in different formulations were determined under greenhouse conditions as follows: […]
(§2) Test plants were grown in plastic pots of approximately 12.5 cm in diameter in a substrate provided with sufficient nutrients and water. At an appropriate shoot length the plants were treated with aqueous sprays of the formulations. The growth-regulating action observed was confirmed at the end of the experiment by measuring the height of the plants. The results obtained were compared with the growth height of the untreated plants.
(§3) To show the synergistic effects of formulations in accordance with the instant invention together with further growth regulating agents, formulations in accordance with the invention were prepared and additional active ingredients added.
Shoot height reduction in spring barley (cv. “Alexis”) 20 days after treatment with combinations of standard compound S2 and compound VII
Shoot height reduction in spring barley (cv. “Alexis”) 20 days after treatment with combinations of standard compound S4 and compound VII

rice = assay: Greenhouse shoot length test, rice; conditions: 1% formulations in cyclohexanone: Emulan EL = 4:1; also: key: 0: no effect; +: low activity; ++: intermediate activity; +++: high activity
Description: as §1, §2

[2] = test system: small grains and rice (wheat, barley, oats, rye, rice); assay: Shoot length reduction in small grains and rice (statements across species); conditions: Examples 1 and 2
Description: as §1, §2

rye = assay: Greenhouse shoot length test, rye; conditions: 1% formulations in cyclohexanone: Emulan EL = 4:1; also: key: 0: no effect; +: low activity; ++: intermediate activity; +++: high activity
Description: as §1, §2

oats = assay: Greenhouse shoot length test, oats; conditions: 1% formulations in cyclohexanone: Emulan EL = 4:1; also: key: 0: no effect; +: low activity; ++: intermediate activity; +++: high activity
Description: as §1, §2

barley = assay: Greenhouse shoot length test, barley; conditions: for Shoot length Barley [% of control]: 1% formulations in Atlas G 1086; for Shoot length [% of control] Barley: 2.5 g/ha ai; as to Shoot length reduction [activity, relative to control] in barley: key: 0: no effect; +: low activity; ++: intermediate activity; +++: high activity
Description: as §1, §2
(§4) Assays with wheat, barley, oat, and rye plants were carried out as described above. The aqueous spray solutions were prepared as follows: […]

wheat = assay: Greenhouse shoot length test, wheat; conditions: for Shoot length Wheat [% of control]: 1% formulations in Atlas G 1086; for Shoot length [% of control] Wheat: 2.5 g/ha ai
Description: as §1, §2, §4

[3] = test system: rice seedlings [cvs. “Koshihikari” (tall), “Tan-ginbozu” (dwarf), “Waito C” (dwarf)]; assay: Shoot growth of rice seedlings, combinations with GA3; conditions: for Shoot growth Waito C [% of Control] / Shoot growth Tan-ginbozu [% of Control] / Shoot growth Koshihikari [% of Control]: 7 days after treatment, 1 kg/ha ammonium sulphate added; for Shoot growth Waito C [% of Control]: 100% = 8.7 cm; for Shoot growth Tan-ginbozu [% of Control]: 100% = 9.4 cm; for Shoot growth Koshihikari [% of Control]: 100% = 17.4 cm
Description: as §1, §2
The synergizing effect of compound VII on shoot elongation in rice is shown in the results of Example 7.
Enhanced shoot growth of rice seedlings [cvs. “Koshihikari” tall), “Tan-ginbozu” (dwarf), “Waito C” (dwarf)] 7 days after treatment with combinations of compound 6 with GA3^d

[4] = test system: spring wheat (cv. “Ralle”); assay: Shoot height reduction in spring wheat, synergistic combinations
Description: as §1, §2, §3
Shoot height reduction in spring wheat (cv. “Ralle”) 21 days after treatment with combinations of standard compound S4 and compound VII
Shoot height reduction in spring wheat (cv. “Ralle”) 13 days after treatment with combinations of standard compound S5 and compound VII

[5] = 1% formulations in cyclohexanone: Emulan EL = 4:1

exo-16,17-Dihydro-GA5-13-acetate [Comp. VII]
% Shoot height reduction Actual ([1]; 3 g/ha a.i.): 6%
% Shoot height reduction Actual ([1]; 3 g/ha a.i., S4/VII table): 6%
% Shoot height reduction Actual ([1]; 6 g/ha a.i.): 18%
% Shoot height reduction Actual ([1]; 6 g/ha a.i., S4/VII table): 18%
Shoot length reduction [activity, relative to control] in rice (rice): +++
shoot length reduction compared with compounds II to V [2]: superior to compounds II to V
Shoot length reduction [activity, relative to control] in rye (rye): +++
Shoot length reduction [activity, relative to control] in oats (oats): +++
Shoot length reduction [activity, relative to control] in barley (barley; [5]): +++
Shoot length Barley [% of control] (barley; 1.6 g/ha ai): 97 % of control
Shoot length [% of control] Barley (barley; adjuvant Ethanol 500 g/ha): 99 % of control
Shoot length [% of control] Barley (barley; adjuvant R 15 500 g/ha): 75 % of control
Shoot length Barley [% of control] (barley; 3.1 g/ha ai): 78 % of control
Shoot length Barley [% of control] (barley; 6.3 g/ha ai): 61 % of control
Shoot length Barley [% of control] (barley; 12.5 g/ha ai): 57 % of control
Shoot length reduction [activity, relative to control] in wheat (wheat; [5]): +++
Shoot length Wheat [% of control] (wheat; 1.6 g/ha ai): 90 % of control
Shoot length [% of control] Wheat (wheat; adjuvant Ethanol 500 g/ha): 99 % of control
Shoot length [% of control] Wheat (wheat; adjuvant R 15 500 g/ha): 73 % of control
Shoot length Wheat [% of control] (wheat; 3.1 g/ha ai): 73 % of control
Shoot length Wheat [% of control] (wheat; 6.3 g/ha ai): 70 % of control
Shoot length Wheat [% of control] (wheat; 12.5 g/ha ai): 64 % of control
Shoot growth Waito C [% of Control] ([3]; VII 12.5 g/ha ai): 80 % of Control
Shoot growth Tan-ginbozu [% of Control] ([3]; VII 12.5 g/ha ai): 74 % of Control
Shoot growth Koshihikari [% of Control] ([3]; VII 12.5 g/ha ai): 75 % of Control
Shoot growth Waito C [% of Control] ([3]; VII 25.0 g/ha ai): 80 % of Control
Shoot growth Tan-ginbozu [% of Control] ([3]; VII 25.0 g/ha ai): 74 % of Control
Shoot growth Koshihikari [% of Control] ([3]; VII 25.0 g/ha ai): 75 % of Control
Shoot growth Waito C [% of Control] ([3]; VII 50.0 g/ha ai): 80 % of Control
Shoot growth Tan-ginbozu [% of Control] ([3]; VII 50.0 g/ha ai): 74 % of Control
Shoot growth Koshihikari [% of Control] ([3]; VII 50.0 g/ha ai): 75 % of Control
effect on shoot elongation in rice ([3]; applied alone): reduces shoot elongation
effect on the shoot growth-promoting effect of GA3 ([3]; applied in combination with GA3): could clearly be raised
% Shoot height reduction Actual ([4]; 3 g/ha a.i., 21 days after treatment): 8%
% Shoot height reduction Actual ([4]; 6 g/ha a.i., 13 days after treatment): 18%
% Shoot height reduction Actual ([4]; 6 g/ha a.i., 21 days after treatment): 21%

Source: patent US6458746B1, “Plant growth regulating formulations” (BASF Aktiengesellschaft, priority 1998, dated 2002)
